This is an account of results in ChEMBL document CHEMBL3414448, “Advances in the discovery of novel antimicrobials targeting the assembly of bacterial cell division protein FtsZ” (Eur J Med Chem, 2015).

Experiment [1] in a line: Inhibition of FtsZ (unknown origin) assessed as reduction in frequency of Z-rings per unit cell length. The settings on record: concentration not given here.
In experiment [2] the target is T1, Cell division protein FtsZ (Escherichia coli K-12) (UniProt P0A9A6).
T1 sequence (whole entry): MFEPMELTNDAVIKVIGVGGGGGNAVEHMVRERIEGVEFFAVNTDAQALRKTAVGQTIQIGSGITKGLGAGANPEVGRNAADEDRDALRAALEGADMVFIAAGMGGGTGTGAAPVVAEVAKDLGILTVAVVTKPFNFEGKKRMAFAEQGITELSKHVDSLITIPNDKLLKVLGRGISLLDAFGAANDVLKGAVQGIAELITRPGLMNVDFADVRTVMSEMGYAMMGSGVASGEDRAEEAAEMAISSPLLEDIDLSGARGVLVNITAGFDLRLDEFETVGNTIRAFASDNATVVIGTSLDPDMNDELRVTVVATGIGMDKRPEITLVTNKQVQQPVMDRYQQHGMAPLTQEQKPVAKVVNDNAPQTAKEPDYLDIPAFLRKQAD
Put plainly: Inhibition of Escherichia coli FtsZ assembly.

Experiment [3] in a line: Activation of FtsZ (unknown origin) assessed as increase in enzyme GTPase activity at 30 uM.
Experiment [4] deals with T2, Cell division protein FtsZ (Bacillus subtilis (strain 168)) (UniProt P17865).
T2 sequence (whole entry): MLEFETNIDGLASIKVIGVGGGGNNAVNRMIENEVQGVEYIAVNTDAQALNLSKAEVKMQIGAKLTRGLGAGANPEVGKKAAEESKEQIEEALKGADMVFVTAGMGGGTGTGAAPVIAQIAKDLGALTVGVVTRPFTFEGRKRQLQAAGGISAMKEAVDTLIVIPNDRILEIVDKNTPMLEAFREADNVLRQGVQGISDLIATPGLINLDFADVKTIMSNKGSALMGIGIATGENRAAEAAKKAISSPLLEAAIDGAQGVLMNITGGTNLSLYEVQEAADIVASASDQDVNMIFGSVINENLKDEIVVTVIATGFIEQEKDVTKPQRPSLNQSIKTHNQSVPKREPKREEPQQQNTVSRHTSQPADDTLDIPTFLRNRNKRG
Put plainly: Inhibition of Bacillus subtilis FtsZ GTPase activity. The settings on record: concentration not given here.

Experiment [5] deals with T3, Cell division protein FtsZ (Staphylococcus aureus) (UniProt P0A031).
T3 sequence (whole entry): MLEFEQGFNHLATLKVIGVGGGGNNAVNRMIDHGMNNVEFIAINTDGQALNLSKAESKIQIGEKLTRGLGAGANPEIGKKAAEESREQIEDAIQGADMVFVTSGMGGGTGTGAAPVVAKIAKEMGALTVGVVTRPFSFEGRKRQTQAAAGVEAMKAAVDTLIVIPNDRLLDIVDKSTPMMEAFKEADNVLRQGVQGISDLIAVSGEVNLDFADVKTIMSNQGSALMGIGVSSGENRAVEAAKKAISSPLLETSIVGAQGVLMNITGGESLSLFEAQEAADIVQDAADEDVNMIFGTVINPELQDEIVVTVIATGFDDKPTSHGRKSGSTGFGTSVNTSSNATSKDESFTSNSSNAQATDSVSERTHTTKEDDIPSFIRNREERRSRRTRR
Put plainly: Inhibition of FtsZ in methicillin-resistant Staphylococcus aureus assessed as reduction in methicillin MIC (reference value: 32 ug/ml).

Experiment [6] has as its target T1, Cell division protein FtsZ (Escherichia coli K-12). Put plainly: Inhibition of FtsZ in Escherichia coli assessed as Z-ring containing cells level at 4 and 8 ug/ml (reference value: 88%). Set-up: scale not given: the % may be the effect or the level left.

Take `COc1ccc2cc3[n+](cc2c1OC)CCc1cc2c(cc1-3)OCO2`: the inhibition in experiment [1] is 50%.
For the molecule `COc1c(OC(C)=O)ccc(/C=N/c2c(C(C)C)cccc2C(C)C)c1[N+](=O)[O-]`, in experiment [2], the ID50 amounted to 7.6 µM.
With `COc1cc(/C=C/C(=O)CC(=O)/C=C/c2ccc(O)c(OC)c2)ccc1O`, the Activity in experiment [3] was 35%.
In turn, `O=C(Oc1cc(OC(=O)c2cc(O)cc(O)c2)c2ccccc2c1)c1cc(O)c(O)c(O)c1` showed an inhibition in experiment [4] of less than 20%.
`O=C(Oc1cc(OC(=O)c2ccc(O)c(Cl)c2)c2ccccc2c1)c1ccc(O)c(Cl)c1` returned an inhibition in experiment [4] of less than 20%.
Consider `CC(C)c1c(O)ccc2c1CC[C@H]1C(C)(C)CCC[C@]21C`, for which the MIC in experiment [5] is 4 µg/mL.
`COc1ccc(/N=C/c2ccc(OC(C)=O)c(OC)c2[N+](=O)[O-])cc1` registered an ID50 in experiment [2] of 2.1 µM.
Take `NCC[C@H](O)C(=O)N[C@@H]1C[C@H](N)[C@@H](O[C@H]2O[C@H](CN)[C@@H](O)[C@H](O)[C@H]2O)[C@H](O)[C@H]1O[C@H]1O[C@H](CO)[C@@H](O)[C@H](N)[C@H]1O`: the Activity in experiment [6] was 35%.
